Tests used:
[1] = test system: chronic constriction of the sciatic nerve; details: intrathecal, given 1 day after chronic constriction of the sciatic nerve, only under daily repeated dosing; cited from earlier work
[2] = test system: DMM-induced OA knee joints; assay: DMM surgery-induced OA model, histology and microCT; assay type: in vivo, mouse; details: for morphology and structure of articular cartilage / cartilage degeneration: intra-articular injection once every two weeks starting immediately after DMM, 2 and 4 months
Excerpt: To induce mouse OA that mimics chronic OA in human patients, male mice at 3 months of age were subjected to DMM surgery at right knees and sham surgery at left knees. Briefly, in DMM surgery, the joint capsule was opened immediately after anesthesia and the medial meniscotibial ligament was cut to destabilize the meniscus without damaging other tissues. In Sham surgery, the joint capsule was opened in the same fashion but without any further damage. […] For DMM surgical OA model, the first injection was performed immediately after surgery. Injections were then repeated every 2 weeks for 2 or 4 months. In total, there are 4 injections for the 2 months group and 8 injections for 4 months group. For load-induced OA model, injections (i.a.) were performed immediately and at 48 hours after loading. There are 2 injections in total for each mouse in this model. After euthanasia, mouse knee joints were harvested and fixed in 4% paraformaldehyde overnight followed by decalcification in 0.5 M EDTA (pH 7.4) for 4 weeks prior to paraffin embedding. A serial of 6 μm-thick sagittal sections (about 100) were cut across the entire medial compartment of the joint until ACL junction. […] The final measurement is an average of these three sections. We defined uncalcified cartilage as the area from articular surface to the tide mark and calcified cartilage as the area from tide mark to cement line. The method to measure Mankin Score was described previously(37). Briefly, two sections within every consecutive six sections in the entire section set for each knee were stained with Safranin 0/Fast green and scored by two blinded observers. Each knee received a single score representing the maximal score of its sections. Synovitis score grading was carried out in 6-μm paraffin sections of sagittal mouse knee sections stained with H&E. The following basic morphological parameters of synovitis were included: (i) hyperplasia/enlargement of synovial lining layer, (ii) degree of inflammatory infiltration and (iii) activation of resident cells/synovial stroma, including fibroblasts, endothelial cells, histiocytes, macrophages, and multinucleated giant cells. All parameters are graded from 0 (absent), 1 (slight), 2 (moderate) to 3 (strong positive). The distal femur of mouse knee joints was scanned at a 6-μm isotropic voxel size with a microCT 35 scanner (Scanco Medical AG, Brüttisellen, Switzerland). All images were smoothened by a Gaussian filter (sigma=1.2, support=2.0). Measurement of SBP thickness was described previously(39). […] The region of interest (ROI) was circled and the average SBP thickness within ROI is calculated by average grey value/255*max scale bar value. […]

[3] = test system: DMM-induced OA knee joints; assay: DMM surgery-induced OA model, von Frey pain analysis; assay type: in vivo, mouse; details: DMM knees; from 2 weeks post-surgery throughout experimental period
Excerpt: To induce mouse OA that mimics chronic OA in human patients, male mice at 3 months of age were subjected to DMM surgery at right knees and sham surgery at left knees. Briefly, in DMM surgery, the joint capsule was opened immediately after anesthesia and the medial meniscotibial ligament was cut to destabilize the meniscus without damaging other tissues. In Sham surgery, the joint capsule was opened in the same fashion but without any further damage. […] For DMM surgical OA model, the first injection was performed immediately after surgery. Injections were then repeated every 2 weeks for 2 or 4 months. In total, there are 4 injections for the 2 months group and 8 injections for 4 months group. For load-induced OA model, injections (i.a.) were performed immediately and at 48 hours after loading. There are 2 injections in total for each mouse in this model. The knee joint pain after DMM surgery or loading injury was evaluated in mice weekly before and after surgery using von Frey filaments as described previously(38). An individual mouse was placed on a wire-mesh platform (Excellent Technology Co.) under a 4×3×7 cm cage to restrict their move. […] The threshold force required to elicit withdrawal of the paw (median 50% withdrawal) was determined five times on each hind paw with sequential measurements separated by at least 5 minutes.

[4] = Toxicity in mice after 2-month serial intra-articular injections; assay type: in vivo, mouse
Excerpt: After 2 months treatment for DMM mice, some major organs (kidney, liver, lung, heart, and spleen) and blood were collected. Tissue sections were stained with hematoxylin and eosin (H&E) to assess the effects of different treatment on mouse organ morphology.

[5] = test system: load-induced OA knee joints; assay: Single load-induced PTOA model, histology and TUNEL; assay type: in vivo, mouse; details: 6 N or 9 N loading, two weeks
Excerpt: To induce mouse OA that is noninvasive and mimics post-traumatic OA in human patients, male mice (2 months old) were subjected mechanic loading at the right knees and sham loading at left knees. Briefly, under anesthesia, the right tibiae were positioned with the knee downward in deep flexion between custom-made cups and subjected to axial compressive loads with a peak force of 6 or 9 Newtons (N) with a 0.5 N preload force to maintain the limb in position between loading cycles. Cyclic loads were applied for 0.34 s with a rise and fall time each of 0.17 s and a baseline hold time of 10 s between cycles for 60 cycles. The uninjured left knees were used as controls. […] For DMM surgical OA model, the first injection was performed immediately after surgery. Injections were then repeated every 2 weeks for 2 or 4 months. In total, there are 4 injections for the 2 months group and 8 injections for 4 months group. For load-induced OA model, injections (i.a.) were performed immediately and at 48 hours after loading. There are 2 injections in total for each mouse in this model. […] Cartilage injury length was measured in Safranin 0/Fast green stained paraffin sections. […] According to these histological changes, it is possible to identify the demarcation between the normal and injured cartilage tissue, and the length of the cartilage lesion range was measured. […]

[6] = test system: load-induced OA knee joints; assay: Single load-induced PTOA model, von Frey pain analysis; assay type: in vivo, mouse; details: 6 N or 9 N loading
Excerpt: To induce mouse OA that is noninvasive and mimics post-traumatic OA in human patients, male mice (2 months old) were subjected mechanic loading at the right knees and sham loading at left knees. Briefly, under anesthesia, the right tibiae were positioned with the knee downward in deep flexion between custom-made cups and subjected to axial compressive loads with a peak force of 6 or 9 Newtons (N) with a 0.5 N preload force to maintain the limb in position between loading cycles. Cyclic loads were applied for 0.34 s with a rise and fall time each of 0.17 s and a baseline hold time of 10 s between cycles for 60 cycles. The uninjured left knees were used as controls. […] For DMM surgical OA model, the first injection was performed immediately after surgery. Injections were then repeated every 2 weeks for 2 or 4 months. In total, there are 4 injections for the 2 months group and 8 injections for 4 months group. For load-induced OA model, injections (i.a.) were performed immediately and at 48 hours after loading. […] The knee joint pain after DMM surgery or loading injury was evaluated in mice weekly before and after surgery using von Frey filaments as described previously(38). […] The threshold force required to elicit withdrawal of the paw (median 50% withdrawal) was determined five times on each hind paw with sequential measurements separated by at least 5 minutes.

CCCCC/C=C\C/C=C\C/C=C\C/C=C\CCCC(=O)C(F)(F)F [AACOCF3]
behavioral sensitivity [1]: reduces behavioral sensitivity

CCCCCCCCCCCCCCCCSCC(COP(=O)([O-])OCC[N+](C)(C)C)NC(=O)CCCCCCCCCCCCCCC (centres unmarked) [sPLA2i, 1-Palmitylthio-2-palmitoylamido-1,2-dideoxy-sn-glycero-3-phosphorylcholine]
increase of SBP thickness at femoral medial site compared to sham joints ([2]; 4 months after DMM surgery): 1.31 fold | increase in synovitis score compared with sham knees ([2]; DMM knees, 2-month treatment): more than 10 fold | morphology and structure of articular cartilage / cartilage degeneration [2]: did not have a protective effect | morphology and structure of articular cartilage / cartilage degeneration ([2]; listed as free sPLA2i): not observed | mechanical threshold / OA pain (von Frey) [3]: did not alter the OA pain | blood parameters (hematology, renal and liver function, serum electrolytes) ([4]; 2-month serial injections): no significant difference | histopathology of liver, spleen, kidney, lung, heart and knee joint ([4]; two months after serial intra-articular injections): did not observe any histopathological abnormalities | length of cartilage injury [5]: significant damage areas | synovitis scores [5]: significant synovitis | pain threshold / OA pain (von Frey) [6]: experienced OA pain

Reference: patent US20230285292A1, “COMPOSITIONS AND METHODS OF USING A PLA2-RESPONSIVE DRUG DELIVERY SYSTEM” (THE TRUSTEES OF THE UNIVERSITY OF PENNSYLVANIA, priority 2020, published 2023)
